According to ChEMBL document CHEMBL5634085, “Design, synthesis and antitrypanosomatid activity of 2-nitroimidazole-3,5-disubstituted isoxazole compounds based on benznidazole” (Eur J Med Chem, 2023):
Active and inactive are the calls of the source. No cut-off for these calls is given here.

Columns and labels:
Trypanosoma cruzi [1] = assay: Antitrypanosomal activity against Trypanosoma cruzi Y trypomastigotes infected in BALB/c mouse model assessed as reduction of parasitemia level at 25 mg/kg/day, po administered via gavage observed on 7 day of post infection relative to control; assay type: functional; set-up: scale not given: the % may be the effect or the level left
Trypanosoma cruzi [2] = assay: Effect on infection-mediated heart weight in Trypanosoma cruzi Y strain trypomastigotes infected in BALB/c mouse model at 25 mg/kg/day, po administered for consecutive 10 days; assay type: functional, organism-based; settings: time 10.0 day
[3] = Cytotoxicity against monkey LLC-MK2 cells incubated for 72 hrs by MTT assay; assay type: toxicity, cell-based, Macaca mulatta; settings: rhesus monkey
Trypanosoma cruzi [4] = assay: Antitrypanosomal activity against Trypanosoma cruzi Tulahuen lacZ expressing beta-galactosidase amastigotes infected in monkey LLC-MK2 cells assessed as inhibition of amastigotes pre-infected in cells for 48 hrs followed by compound addition and measured after 72 hrs by CPRG reagent based absorbance analysis; assay type: functional, organism-based
[5] = Selectivity index, ratio of CC50 for monkey LLC-MK2 cells to IC50 for Trypanosoma cruzi Tulahuen lacZ expressing beta-galactosidase amastigotes infected monkey LLC-MK2 cells; assay type: toxicity; settings: read-out: Ratio CC50/IC50
Trypanosoma cruzi [6] = assay: Binding affinity to Trypanosoma cruzi type I nitro reductase at 25 uM incubated for 5 mins in the presence of NADH by microplate reader analysis
Trypanosoma cruzi [7] = assay: Binding affinity to Trypanosoma cruzi type I nitro reductase at 10 uM incubated for 5 mins in the presence of NADH by microplate reader analysis
Trypanosoma cruzi [8] = assay: Antitrypanosomal activity against Trypanosoma cruzi Y trypomastigotes infected in BALB/c mouse model assessed as reduction of parasite load in cardiac tissue by measuring reduction in DNA copy number at 25 mg/kg/day, po administered via gavage observed on 11 day of post infection by qPCR analysis relative to control; assay type: functional; set-up: scale not given: the % may be the effect or the level left
Trypanosoma cruzi [9] = assay: Antitrypanosomal activity against Trypanosoma cruzi Y strain trypomastigotes infection induced hepatosplenomegaly BALB/c male mouse model assessed as change in infection-mediated liver weight at 25 mg/kg/day, po administrated for consecutive 10 days; assay type: functional, organism-based; settings: time 10.0 day
Trypanosoma cruzi [10] = assay: Antitrypanosomal activity against Trypanosoma cruzi Y strain trypomastigotes infection induced hepatosplenomegaly BALB/c male mouse model assessed as change in infection-mediated spleen weight at 25 mg/kg/day, po administrated for consecutive 10 days; assay type: functional, organism-based; settings: time 10.0 day
[11] = Toxicity in BALB/c mouse infected with Trypanosoma cruzi Y trypomastigotes assessed as body weight gain at 25 mg/kg/day, po administrated via gavage for consecutive 10 days; assay type: organism-based; settings: in vivo, 240 h, time 10 day
Leishmania amazonensis [12] = assay: Antileishmanial activity against Leishmania amazonensis IFLA/BR/1967/PH8 amastigotes infected in mouse peritoneal macrophage assessed as inhibition of parasite growth pre-infected in cells for 4 hrs followed by compound addition and measured after 24 hrs by Giemsa staining based analysis; assay type: functional, organism-based; settings: IFLA/BR/1967/PH8, Peritoneal macrophage
[13] = Selectivity index, ratio of CC50 for cytotoxicity against monkey LLC-MK2 cells to IC50 for antileishmanial activity against Leishmania amazonensis IFLA/BR/1967/PH8 amastigotes infected in mouse peritoneal macrophage; assay type: toxicity, cell-based; settings: read-out: Ratio CC50/IC50
[14] = Toxicity in BALB/c mouse infected with Trypanosoma cruzi Y trypomastigotes assessed as animal survival at 25 mg/kg/day, po administrated via gavage for consecutive 10 days relative to control; assay type: organism-based; settings: in vivo, time 10 day
Trypanosoma cruzi [15] = assay: Antitrypanosomal activity against Trypanosoma cruzi Y trypomastigotes infected in BALB/c mouse model assessed as reduction of parasitemia level at 25 mg/kg/day, po administered via gavage administrated for consecutive 10 days and measured on day 11; assay type: functional, organism-based; settings: time 11.0 day
Trypanosoma cruzi [16] = assay: Potency index, ratio of benznidazole IC50 to test compound IC50 for antitrypanosomal activity against Trypanosoma cruzi Tulahuen lacZ expressing beta-galactosidase amastigotes infected in monkey LLC-MK2 cells assessed as inhibition of amastigotes pre-infected in cells for 48 hrs followed by compound addition and measured after 72 hrs by CPRG reagent based absorbance analysis; assay type: functional
Leishmania amazonensis [17] = assay: Potency index, ratio of pentamidine IC50 to test compound IC50 for antileishmanial activity against Leishmania amazonensis IFLA/BR/1967/PH8 amastigotes infected in mouse peritoneal macrophage assessed as inhibition of parasite growth pre-infected in cells for 4 hrs followed by compound addition and measured after 24 hrs by Giemsa staining based analysis; assay type: functional, Peritoneal macrophage cell
Trypanosoma cruzi [18] = assay: Antitrypanosomal activity against Trypanosoma cruzi Y trypomastigotes infected in BALB/c mouse model assessed as reduction of parasitemia level at 25 mg/kg/day, po administered via gavage for consecutive 10 days and measured on day 5,7,9 and 11; assay type: functional, organism-based; settings: time 11.0 day
[19] = Toxicity in BALB/c mouse infected with Trypanosoma cruzi Y trypomastigotes assessed as body weight loss at 25 mg/kg/day, po administrated via gavage for consecutive 10 days; assay type: organism-based; settings: in vivo, 240 h, time 10 day
[20] = Toxicity in BALB/c mouse infected with Trypanosoma cruzi Y trypomastigotes assessed as animal survival at 25 mg/kg/day, po administrated via gavage for consecutive 10 days; assay type: organism-based; settings: in vivo, 240 h, time 10 day

Compound | Activity (Trypanosoma cruzi [1]) [%] | Activity (Trypanosoma cruzi [2]) | CC50 at 72 h [3] [µM] | IC50 (Trypanosoma cruzi [4]) [µM] | selectivity ratio [5] | Kobs (Trypanosoma cruzi [6]) [s⁻¹] | Kobs (Trypanosoma cruzi [7]) [s⁻¹] | Activity (Trypanosoma cruzi [8]) [%] | Activity (Trypanosoma cruzi [9]) | Activity (Trypanosoma cruzi [10]) | Activity [11] | IC50 (Leishmania amazonensis [12]) [µM] | selectivity ratio [13] | survival at 240 h [14] [%] | Activity (Trypanosoma cruzi [15]) | Ratio IC50 (Trypanosoma cruzi [16]) | Ratio IC50 (Leishmania amazonensis [17]) | Activity (Trypanosoma cruzi [18]) | Activity [19] | Activity [20]
CCN1CCN(c2ccc(-c3cc(Cn4ccnc4[N+](=O)[O-])on3)cc2)CC1 | 77 | inactive | > 50 | 1.6 | > 30.8 | 0.48 | 0.23 | 73 | Active | Active | Non-Toxic | 5.5 | > 9 | 100 | inactive |  |  |  |  | 
COc1ccc(-c2cc(Cn3ccnc3[N+](=O)[O-])on2)cc1[N+](=O)[O-] |  |  | > 50 | 24.2 | > 2.1 | 0.57 | 0.54 |  |  |  |  | 15.2 | > 3.3 |  |  |  |  |  |  | 
O=[N+]([O-])c1ccc(-c2cc(Cn3ccnc3[N+](=O)[O-])on2)o1 |  |  | > 50 | 0.9 | > 51 | 1.27 | 0.75 |  |  |  |  |  |  |  |  | 5.4 |  |  |  | 
CN(C)c1ccc(-c2cc(Cn3ccnc3[N+](=O)[O-])on2)cc1 |  |  | > 50 | 2.3 | > 21.2 | 0.31 | 0.24 |  |  |  |  | 33.4 | > 1.5 |  |  |  |  |  |  | 
CC(C)N1CCN(c2ccc(-c3cc(Cn4ccnc4[N+](=O)[O-])on3)cc2)CC1 |  |  | > 50 | 6.6 | > 7.6 |  |  |  |  |  |  | 4.7 | > 10.6 |  |  |  | 3.5 |  |  | 
O=[N+]([O-])c1nccn1Cc1cc(-c2ccc(N3CCNCC3)cc2)no1 |  |  | > 50 | 4.7 | > 10.5 |  |  |  |  |  |  | 2.5 | > 19.8 |  |  |  | 6.6 |  |  | 
Cc1ccc(-c2cc(Cn3ccnc3[N+](=O)[O-])on2)cc1[N+](=O)[O-] |  |  | > 50 | 33.6 | > 1.5 |  |  |  |  |  |  | 3.3 | > 15.3 |  |  |  | 5.1 |  |  | 
O=[N+]([O-])c1nccn1Cc1cc(-c2ccc(O)cc2)no1 |  | inactive | > 50 | 0.6 | > 87.7 | 0.68 | 0.47 |  | Active | Active | Non-Toxic | 18.7 | > 2.7 | 100 |  | 12 |  | inactive |  | 
O=[N+]([O-])c1nccn1Cc1cc(-c2ccc3c(c2)OCO3)no1 |  |  | > 50 | 3.6 | > 13.8 |  |  |  |  |  |  | 8.3 | > 6 |  |  |  | 2 |  |  | 
CN1CCCN(c2ccc(-c3cc(Cn4ccnc4[N+](=O)[O-])on3)cc2)CC1 |  |  | > 50 | 1.6 | > 32 |  |  |  |  |  |  | 2.3 | > 21.3 |  |  |  | 7.1 |  |  | 
COc1cc(OC)c(Cl)c(-c2cc(Cn3ccnc3[N+](=O)[O-])on2)c1 |  |  | > 50 | 12 | > 4.2 |  |  |  |  |  |  | 2.2 | > 22.6 |  |  |  | 7.6 |  |  | 
CN1CCN(c2ccc(-c3cc(Cn4ccnc4[N+](=O)[O-])on3)cc2)CC1 |  | inactive | > 50 | 0.4 | > 125 | 0.38 | 0.21 |  | Active | Active | Non-Toxic | 15.6 | > 3.2 | 100 |  | 10 |  | inactive |  | 
O=[N+]([O-])c1nccn1Cc1cc(-c2ccc(N3CCN(CCO)CC3)cc2)no1 |  |  | > 50 | 7.5 | > 6.7 |  |  |  |  |  |  | 5.6 | > 8.8 |  |  |  | 2.9 |  |  | 
Nc1ccc(-c2cc(Cn3ccnc3[N+](=O)[O-])on2)cc1 |  |  | > 50 | 6.2 | > 8.1 |  |  |  |  |  |  | 21.7 | > 2.3 |  |  |  |  |  |  | 
COc1ccc(-c2cc(Cn3ccnc3[N+](=O)[O-])on2)cc1Cl |  |  | > 50 | 1 | > 49 |  |  |  |  |  |  | 31.3 | > 1.6 |  |  |  |  |  |  | 
COc1ccc(-c2cc(Cn3ccnc3[N+](=O)[O-])on2)cc1OC |  | inactive | > 50 | 0.2 | > 200 | 0.82 | 0.57 |  | Active | Active |  | 19.6 | > 2.5 |  |  | 15 |  | inactive | Toxic | Toxic
